According to patent publication US20090056397A1, “NITROGEN CONTAINING FERTILIZER FOR PLANT GROWTH” (SweTree Technologies AB, priority 2000, published 2009):
Where two headings read alike, the source gives them in different places.

Tests used:
[1] = for Retention % (adsorption or retention of the chemicals in the peat): 0.2 millimole chemical per gram peat, 5 millimolar solution, one hour at room temperature, mean of three tests, HPLC of liquid phase; for amount of supplied chemical found in the liquid (water) phase: same test as the retention, liquid phase above the peat
Experimental: A given amount of peat of the same kind as that used in the cultivation trials and whose properties have been given above was dried in an oven at a temperature of 60° C. for 20 hours. […] Portions of this peat corresponding to 0.25 grams were inserted into nine test tubes. 5 ml water was delivered to each test tube, this water having been purified in filters from the company Millipore. The test tubes and their contents were then allowed to stand at room temperature for 20 hours, so that the peat would become wet through.
The aforesaid three chemicals, each in solid state, were weighed into three equal portions. Each portion was dissolved in 5 ml water that had been purified in the before described manner. The amount or weight of the substance was such as to obtain a substance concentration of 5 millimolar.
Each of the nine chemical solutions was delivered to a respective test tube that contained water-drenched peat. The amount of chemical added was 0.2 millimole per gram peat in all cases. Subsequent to supplying said liquid, each test tube was shaken by hand and thereafter allowed to stand at room temperature for one hour. The materials in the test tubes layered, such that the lowermost third contained a substantially clear liquid phase and the remainder of the tube contained liquid-drenched peat. A pipette was inserted into the test tube down to approximately midway of the liquid phase. About 1.5 millilitres of liquid was drawn off through the pipette and analysed with respect to its chemical content with the aid of HPLC-chromatography (HPLC=High Performance Liquid Chromatography).
As evident from the foregoing, three similar tests were carried out for each chemical.

pine plants = test: Cultivation trials with pine plants in peat using various nitrogen sources; type: in vivo; conditions: 59 days; for growth of the pine plants (mean dry weight), ranking of the nitrogen sources: greenhouse 20° C., nitrogen 1, 3 and 10 mM, FIG. 1; for change in growth of the pine plants on charge increase from three to ten millimoles per litre: nitrogen 3 mM to 10 mM
Experimental: The cultivation trials presented below were carried out over a time period of 59 days in a greenhouse that was kept at a constant temperature of 20° C. Lighting was kept at 150 micromole light per square meter (m^2) and second (s). The lamps used to this end were Philips Powertone SON-T+400 Watt. 720 pine seeds were sown in pots that contained 0.5 litre unfertilized (but weakly […] five seeds per pot. The pots were plastic pots that included typically four small holes in the bottom of the pot. […] Fertilizer was administered on Monday and Tuesday of each week and the seeds, and later the seedlings or shoots, were watered each Sunday. The nutrient mixture and the water were both brought a pH of 5.0 with hydrochloric acid. Both the nutrient mixture and the water were administered manually to each pot with the aid of so-called bird pipette having a capacity of one decilitre. […] Eight different nutrient mixtures were tested and the nitrogen for each nutrient mixture was charged in three different concentrations, namely concentrations of one millimole per litre (1 mM), three millimole per litre (3 mM) and ten millimole per litre (10 mM). Six pots, and therewith thirty plants, were used for each nutrient mixture and each concentration, giving a total of 144 pots. […] Further dilution was required to obtain respective concentrations of three millimole and one millimole. The remaining seven nutrient mixtures were obtained, by preparing a stock solution that coincides totally with the before described commercial product but with the exception that the nitrogen source in the form of 61.5% nitrogen in nitrate form and 38.5% nitrogen in ammonium form was excluded. […] Each nutrient mixture based on the latter two nitrogen sources were prepared and have been given the designation +(plus) in the following. The addition is that the stock solution has been charged with twice the conventional amount of both potassium and magnesium. As those skilled in this art will realise, this has been done because a significant increase in the amount of ammonium nitrogen at the cost of the amount of nitrate nitrogen may result in a potassium and magnesium deficiency from the nutrient aspect. It will be noted that with regard to the inventive fertilizer, i.e. the basic protein amino acid arginine that contains four nitrogen atoms, the concentration has been calculated on the basis of one nitrogen atom, which means that the actual addition of the acid calculated in grams per litre is comparatively low or very low. At the end of the cultivation trials, the thirty pine plans in each trial series were taken up and their dry weight determined in grams. […] The sign I stand for the standard error defined as the standard deviation (which is a well defined term to describe the spread between tests) divided by the square root of the number of samples, in this case thirty samples.

spruce plants = test: Cultivation trials with spruce plants in peat using various nitrogen sources; type: in vivo; conditions: 59 days
Source text: 720 spruce seeds were sown in peat at the same time as and in parallel with the above described trials. The trials carried out on spruce seeds and on spruce plants stemming from the seed were identical to the earlier described trials. […] The standard deviation is also shown in this case.

| Retention % (adsorption or retention of the chemicals in the peat) ([1]; listed as glycine) | Compound | Retention % (adsorption or retention of the chemicals in the peat) [1] | growth of the pine plants (mean dry weight), ranking of the nitrogen sources (pine plants) | change in growth of the pine plants on charge increase from three to ten millimoles per litre (pine plants) | growth of the spruce plants with increased nitrogen charges (spruce plants; nitrogen 1 to 3 to 10 mM) | Retention % (adsorption or retention of the chemicals in the peat) ([1]; listed as arginine) | amount of supplied chemical found in the liquid (water) phase [1] | growth of the pine plants with increase in the nitrogen addition (pine plants; nitrogen 1 to 3 to 10 mM) | state of the spruce plants at the end of the trial (toxicity limit) (spruce plants; nitrogen charge of ten millimoles per litre) | Retention % (adsorption or retention of the chemicals in the peat) ([1]; listed as ammonium) | growth of the pine plants at a charge of three millimoles per litre (pine plants; nitrogen 3 mM) |
| --- | --- | --- | --- | --- | --- | --- | --- | --- | --- | --- | --- |
| less than zero | NCC(=O)O [Glycine, glycine] | −1.9% | these three preparations are followed by the nutrient mixture that includes glycine | slight decrease in growth or at least not an increased growth |  |  |  |  |  |  |  |
|  | N=C(N)NCCC[C@H](N)C(=O)O [Arginine, arginine] | 89.1% | best growth |  | constantly increased growth | ~90% | ~11% | increased constantly with an increase in the nitrogen addition |  |  |  |
|  | Cl.N [Ammonium (NH4^+), ammonium chloride] | 28.0% |  | catastrophic reduction in growth |  |  | more than 70% |  | dead at the end of the trial | 28% | sufficiently good growth |
